The values that follow come from US7662994B2, “Method for the preparation of crystalline dexloxiglumide and products obtained” (Rottapharm S.p.A., priority 2003, dated 2010).

The nature of series [1]: Compressibility of the powder (Carr index, USP 24/NF19). The note with it: 100 g powder, 250 ml graduated cylinder, 2000 strokes; percentage values 5-15 excellent, >33 very poor. It is filed as physicochemical. As to the method:
a) measurement of the compressibility of the powder which is expressed by the following formula (Carr index; (according to USP 24/NF19, p. 1914): [formula] where Vo and Vf are respectively the volumes occupied by a predetermined weighed quantity of powder (generally 100 g) placed in a 250 ml graduated cylinder and measured before and after a certain number of mechanical strokes (generally 2000 strokes); the smaller this index is the better will be the behaviour of the powder upon compression; for example, percentage values between 5-15 are considered excellent, whereas values greater than 33 are considered very poor (see J. I. Wells—Pharmaceutical Preformulation; Ellis H. Lim; J. Wiley and Sons Ed. p.

Series [2] in a line: Particle size distribution by laser light scattering (Malvern Master Sizer 2000, wet method). Format: physicochemical. Particulars: for span index: (D90-D10)/D50 type width of distribution; for D50 (mean size measurement) / percentage of particles <10 μm (fine particles): wet method, H2O with 0.5% Tween 20, sonication 60 sec. How it is done: The PSD is determined by the “laser light scattering” technique, that is, the scattering (diffraction) which a high-energy, monochromatic light beam (a laser beam) undergoes when it encounters a particle of a particular size on its optical path. The powder to be examined may be prepared by various techniques, both dry and wet; in the latter case, the selection of the dispersant should take account of the chemical/physical properties of the raw material to be analyzed. Once the sample has been analyzed, the results can be given as histograms in which each individual column represents a band of a certain width (in microns), whereas the height represents the percentage of sample present in that band. The principal statistical distribution values calculated by the software of this apparatus are, amongst other things, the D50, that is, the size in microns for which 50% of the sample is smaller and 50% is larger. Another important measurement is the “span”, which is the measurement of the width of the distribution. This width is calculated by the following ratio: [formula] where D90 and D10 have meanings analogous to that of D50. The smaller this “span” index is, the more reliable the particle distribution of the sample examined will be. The apparatus used for the determination of the PSD was a Malvern Master Sizer 2000 and the method used was the wet method with the use of H2O as the dispersant with a concentration of 0.5% of Tween 20 as surfactant. The measurements were taken at a concentration of dexloxiglumide of about 0.06-0.08% after ultrasound sonication for 60 sec which enabled the accumulations to be broken up without breaking the crystals. Note: The particle sizes given both in the text and in the claims are not absolute quantities but are relative to the measurement method used (in this case the Malvern Master Sizer 2000 instrument with the method described in Example 1).

A short description of series [3]: Morphological analysis of the crystals by microscopy (300x). It is filed as physicochemical. The note with it: photographs, 300x magnification. As to the method:
Morphological analysis performed by microscopic analysis of the crystals obtained by crystallization from ethanol/H2O and isopropyl ether, respectively, also confirms what had already been seen with by particle-size analysis by laser-beam diffraction.
It can be seen from a comparison of the two images of FIG. 2 that the product crystallized from isopropyl ether has crystals with well-defined, lamellar shapes with an average diameter of about 70-100 μm, whereas the other lot has crystals of irregular shape with very many smaller aggregated crystals.

Series [4] addresses T1, type-1 cholecystokinin (CCK1) receptor (Homo sapiens, UniProt P32238).
T1 sequence (P32238 1-428): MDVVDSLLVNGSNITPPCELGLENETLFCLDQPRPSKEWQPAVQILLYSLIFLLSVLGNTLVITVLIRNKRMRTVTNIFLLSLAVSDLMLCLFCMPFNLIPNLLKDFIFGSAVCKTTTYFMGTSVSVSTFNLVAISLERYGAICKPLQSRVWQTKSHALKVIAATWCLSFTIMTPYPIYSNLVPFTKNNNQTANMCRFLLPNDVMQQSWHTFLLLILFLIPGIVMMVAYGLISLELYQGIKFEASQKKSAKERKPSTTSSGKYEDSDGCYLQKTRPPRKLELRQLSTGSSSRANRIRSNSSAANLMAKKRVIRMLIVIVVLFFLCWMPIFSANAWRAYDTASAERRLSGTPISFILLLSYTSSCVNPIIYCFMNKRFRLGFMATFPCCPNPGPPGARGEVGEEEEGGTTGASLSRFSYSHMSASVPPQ
Particulars: cited from earlier work.

A value given as a limit tells only on which side of the number the result lay.

`CCCCCN(CCCOC)C(=O)[C@@H](CCC(=O)O)NC(=O)c1ccc(Cl)c(Cl)c1` [dexloxiglumide obtained by crystallization from H2O/ethanol ] [(R)-4-[(3,4-dichlorobenzoyl)amino]-5-[(3-methoxypropyl)-pentylamino]-5-oxo-pentanoic acid, reference compound] returned a Carr index in series [1] above 33. For the same compound, in series [2], the “shape of particle distribution” value is “bimodal”, the span index is on record as 4.668, the “D50 (mean size measurement)” value was 23.6 μm and the “percentage of particles <10 μm (fine particles)” value was 29.5%.

For the compound `CCCCCN(CCCOC)C(=O)[C@@H](CCC(=O)O)NC(=O)c1ccc(Cl)c(Cl)c1` [lot PP9282/43851, (R)-4-[(3,4-dichlorobenzoyl)amino]-5-[(3-methoxypropyl)-pentylamino]-5-oxo-pentanoic acid], the Carr index result in series [1] is reported as “about 12”. Besides, the “average diameter of crystals” value in series [3] was 70-100 μm. Besides, in series [2], the “shape of particle distribution” value was “practically unimodal”, the span index was 1.608, the “D50 (mean size measurement)” value stood at 97.3 μm and the “percentage of particles <10 μm (fine particles)” value is 4.23%.

Turning to `CCCCCN(CCCOC)C(=O)[C@@H](CCC(=O)O)NC(=O)c1ccc(Cl)c(Cl)c1` [Dexloxiglumide, (R)-4-[(3,4-dichlorobenzoyl)amino]-5-[(3-methoxypropyl)-pentylamino]-5-oxo-pentanoic acid], the “antagonistic activity towards CCK1 receptor” value in series [4] was “potent antagonistic activity”.
